System: CD8+ T cells
Assay: Drug concentration in CD8+ T cells after in vitro incubation
Assay type: cell-based
Settings: free drug at 10-fold higher dose, compared to drug-loaded nanoparticles

**Q.** With `Cc1cccc(-c2[nH]c(C(C)(C)C)nc2-c2ccc3nccnc3c2)n1` [SB525334] as the compound, how does the drug/cell ratio read?
**A.** The drug/cell ratio was “lower drug/cell ratio”.

Source: patent publication US20180133343A1, “NANOPARTICLE CONJUGATES AND USES THEREOF” (Massachusetts Institute of Technology, priority 2016, published 2018)
